Test results reported in patent US20190224251A1, “METHODS OF DIFFERENTIATING STEM CELLS INTO ENDODERM” (MEMORIAL SLOAN-KETTERING CANCER CENTER, priority 2016, published 2019).
Entries after “also recorded” stand apart in the source; their conditions may differ. Each block holds one molecule with its values, some of them ahead of it.

Legend:
HUES8 SOX17GFP/+ cells = test: Definitive endoderm (DE) differentiation, flow cytometry of SOX17-GFP reporter; assay type: cell-based, human; conditions: for formation of SOX17+ endoderm cells: Activin A and CHIR-99021 treatment, efficiency sensitive to dosages
Description: (§1) Human ES or iPS cells were cultured in E8 medium and routinely passed by EDTA. When cells reach to 80-90% confluences, cells were treated with TrpLE Select and get single cell for passaging. Typically, 0.15 millions human ES or iPS cells were plated in one well of the six-well plates with ROCK inhibitor 10 uM in 2 ML E8 media. For the H1 line, it was typically plated 0.1 million cells to accommodate the higher proliferation rate. Twenty-four hours later, cells were washed with PBS once and add Day0 media (Advanced RPMI (Thermo Fisher Scientific, 12633012) with penicillin/streptomycin (Thermo Fisher Scientific, 15070063), GlutaMAX (Thermo Fisher Scientific, 35050079), 0.003% BSA (Thermo Fisher Scientific, 15260037), […] CHIR-99021 (Tocris, 4423) and 100 ng/ml Activin A (PeperoTech, 12014E)). Over the next 2 days, cells were changed to Day2 media (Advanced RPMI with penicillin/streptomycin, GlutaMAX, 0.2% FBS and 100 ng/ml Activin A). […] JNK inhibitor JNK-IN-8 (Selleckchem, S4901) was used during differentiation when indicated. Routinely, around 60-80% SOX17+ cells were obtained in 3 days.
Cells were dissociated using TrypLE Select and resuspended in FACS buffer (5% FBS, 5 mM EDTA in PBS). First, cells were stained with surface antibody (CXCR4-APC) with LIVE/DEAD violet dye (Molecular Probe, L34955, 1:1,000) for 30 minutes at 4° C. After washing, […] After washing with FACS buffer, cells were fixed and permeabilized in 1× fixation/permeabilization buffer (eBioscience, 00-5523-00) for 30 minutes at 4° C. After fixation and permeabilization, cells were stained with intracellular conjugated antibody (SOX17-PE, GATA6-PE, GATA4-Alexa-647) in permeabilization buffer (eBioscience, 00-5523-00) for 30 minutes at 4° C. After washing with permeabilization buffer, cells were resuspended in FACS buffer, and samples were analyzed using BD LSRfortessa or BD LSRII. Flow cytometry analysis and figures were generated in Flowjo 10.

[1] = tested on: definitive endoderm (SOX17 and CXCR4 expression); test: Serum-free DE differentiation with JNK inhibition on the first day; assay type: cell-based, human; conditions: one day of JNK inhibition, no serum
Text: (§2) An improved protocol suitable for endoderm derivative lineage differentiation was developed. The improved protocol dispensed with the use of serum and inhibited JNK on the first day of definitive endoderm differentiation (FIG. 13A).

H1 cell line = test: Definitive endoderm (DE) differentiation, flow cytometry of SOX17; assay type: cell-based, human
Description: as §1
(§3) Cells were dissociated using TrypLE Select and resuspended in FACS buffer (5% FBS, 5 mM EDTA in PBS). […] After washing with permeabilization buffer, cells were resuspended in FACS buffer, and samples were analyzed using BD LSRfortessa or BD LSRII. […]

[2] = tested on: DE cells differentiated from human ES cells; test: Endoderm differentiation in high or low Activin A condition, flow cytometry (CXCR4/SOX17, GATA6/GATA4) and RT-qPCR; assay type: cell-based; conditions: either high or low Activin A condition
Description: Human ES or iPS cells were cultured in E8 medium and routinely passed by EDTA. When cells reach to 80-90% confluences, cells were treated with TrpLE Select and get single cell for passaging. Typically, 0.15 millions human ES or iPS cells were plated in one well of the six-well plates with ROCK inhibitor 10 uM in 2 ML E8 media. For the H1 line, it was typically plated 0.1 million cells to accommodate the higher proliferation rate. […]
as §3
Cell pellets were lysed in TRIzol (Thermo Fisher Scientific, 15596018). […] Quantitative real-time PCR was performed in triplicate using ABsolute Blue QPCR SYBR Green Mix with low ROX (Thermo Scientific, #AB4322B) on the ABI PRISM® 7500 Real Time PCR System (Applied Biosystems) using the following protocol: 15 minutes at 95° C. followed by 40 cycles of 15 seconds at 95° C., 30 seconds at 58° C., and 30 seconds at 72° C. The signal was detected at 72° C.

[3] = tested on: NKX2.1 expressing lung progenitor cells; test: Lung progenitor differentiation after transient JNK inhibition during DE differentiation; assay type: cell-based, human; conditions: flow cytometry
Text: as §2

[4] = tested on: NKX6.1 and PDX1 expressing pancreatic progenitor cells; test: Pancreatic progenitor differentiation after transient JNK inhibition during DE differentiation; assay type: cell-based, human; conditions: flow cytometry and immunostaining
Text: as §2

[5] = tested on: C-terminal SMAD2 phosphorylation (Ser465/467) and JUN phosphorylation; test: Western blotting for signaling crosstalk between Nodal and JNK pathways; assay type: cell-based, human; conditions: 15 minutes and 1 hour after initiating differentiation
Description: (§4) Cell pellets were quickly snap frozen in liquid nitrogen and lysated in lysis buffer (Cell Signaling Technology, 9803) with proteinase/phosphatase inhibitors (Cell Signaling Technology, 5872) and 1 mm PMSF (MP Biomedicals, ICN19538105). Proteins were pre-cleared by centrifugation at 14,000 g 4° C. for 10 minutes. Protein concentration was determined by Bradford assay (Bio-Rad, 500-0202). Equal amounts of protein were loaded into Bis-Tris 10% gel (Novex, NP0301BOX) and transferred to nitrocellulose membranes (Novex, LC2001). Membranes were blocked with 5% milk (for non-phosphorylated proteins) or 5% BSA (for phosphorylated proteins). Primary antibody was incubated overnight at 4° C. Membranes were washed with TBST 3 times for 10 minutes each and incubated with secondary antibody for 1 hour at R.T. Membrane were washed with TBST 3 times for 10 minutes each. ECL western blotting detection reagents (Amersham, RPN2236 and Thermo Fisher Scientific, 32106) were used to visualize the protein bands.

[6] = tested on: SOX17 and GATA6 enhancers; test: ChIP-qPCR of SMAD2/3 and JUN binding at the SOX17 and GATA6 enhancers; assay type: cell-based, human; conditions: DE cells at Day 2
Description: Definitive endoderm cells at Day 2 were collected for chromatin immunoprecipitation. Cells were cross-linked with 1% formaldehyde (Sigma, F1635) at 37° C. for 15 min and quenched with 0.125 M glycine for 5 min at room temperature. ChIP was performed as previously described 52. Samples were incubated with […] of antibody bound to […] Dynabeads protein G (Thermo Fisher Scientific, 1004D), then incubated overnight at 4° C. 2% pre-cleared chromatin prior to primary antibody addition was kept as input DNA. Magnetic beads were washed and chromatin was eluted, and reverse cross-linked ChIP DNA was dissolved in 10 mM Tris pH 8.0 buffer for further analysis. For ChIP-qPCR, immunoprecipitated DNA was analyzed by qPCR, and the amplification product was expressed as percentage of the 2% input.

[7] = tested on: HUES6 ES cells, and BJ and CV iPS cells; test: Definitive endoderm differentiation in further ES and iPS cell lines, flow cytometry of SOX17; assay type: cell-based, human; conditions: without inhibitor efficiency 60-80%
Description: as §1, §3

JUN phosphorylation = test: Western blot of JUN phosphorylation in DE cells; assay type: cell-based, human
Description: as §4

Molecule: Cc1c[nH]c(-c2cnc(NCCNc3ccc(C#N)cn3)nc2-c2ccc(Cl)cc2Cl)n1 [CHIR-99021, 6-(2-(4-(2,4-dichlorophenyl)-5-(4-methyl-1H-imidazol-2-yl)pyrimidin-2-ylamino)ethylamino)nicotinonitrile]
formation of SOX17+ endoderm cells (HUES8 SOX17GFP/+ cells): required
outcome of prolonged WNT activation (HUES8 SOX17GFP/+ cells; prolonged CHIR-99021 treatment): formation of CXCR4+SOX17− cells

binding of JUN to the SOX17 and GATA6 enhancers [6]: diminished
binding of SMAD2/3 to the SOX17 and GATA6 enhancers [6]: enhanced
Molecule: Cc1cc(NC(=O)c2cccc(NC(=O)/C=C/CN(C)C)c2)ccc1Nc1nccc(-c2cccnc2)n1 [JNK-IN-8]
induction of definitive endoderm (SOX17 and CXCR4 expression) [1]: sufficient to induce differentiation of definitive endoderm
DE differentiation (SOX17+ cells) (H1 cell line; 1 μm JNK-IN-8, 3 days, H1, DMSO control ~66%): ~96%
effect on DE differentiation at Day 2 versus Day 3 (H1 cell line; 1 μm JNK-IN-8, H1 and HUES8-SOX17GFP): stronger at Day 2
DE differentiation (SOX17GFP+ cells) (HUES8 SOX17GFP/+ cells; 1 μm JNK-IN-8, 3 days, HUES8-SOX17GFP, DMSO control ~79%): ~98%
requirement for Activin A in Activin A dose titration (HUES8 SOX17GFP/+ cells; HUES8 SOX17GFP/+ cells): did not omit the requirement for Activin A
SOX17+ cells formed (HUES8 SOX17GFP/+ cells; JNK-IN-8 with 20 ng/ml Activin A, HUES8 SOX17GFP/+ cells): ~95%
efficiency of endoderm differentiation based on flow cytometry [2]: greater than 90%
levels of endoderm gene expression from RT-qPCR [2]: increased
number of NKX2.1 expressing lung progenitor cells [3]: significantly increased
number of NKX6.1 and PDX1 expressing pancreatic progenitor cells [4]: significantly increased
C-terminal SMAD2 phosphorylation (at Ser465/467) [5]: did not change
JUN phosphorylation (Western blot) [5]: inhibited
endoderm differentiation efficiency [7]: significantly improved
phosphorylation of JUN (Western blot) (JUN phosphorylation; JNK-IN-8 1 μm, H1-derived DE cells at day 3): undetectable; also recorded: inhibition of JUN phosphorylation
total JUN level (Western blot) (JUN phosphorylation; JNK-IN-8 treated cells): down-regulated

Molecule: NC(=O)c1ccc(-c2nc(-c3ccc4c(c3)OCO4)c(-c3ccccn3)[nH]2)cc1 [SB431542]
C-terminal SMAD2 phosphorylation (at Ser465/467) [5]: blocked
JUN phosphorylation (Western blot) [5]: did not affect

B1: Activin A: TGF-β superfamily member that mimics the activity of Nodal (protein, UniProt P08476 311-426, looked up)
Inhibin beta A chain: GLECDGKVNICCKKQFFVSFKDIGWNDWIIAPSGYHANYCEGECPSHIAGTSGSSLSFHSTVINHYRMRGHSPFANLKSCCVPTKLRPMSMLYYDDGQNIIKKDIQNMIVEECGCS
modifications: Inhibin beta A chain
formation of SOX17+ endoderm cells (HUES8 SOX17GFP/+ cells): required
C-terminal SMAD2 phosphorylation (at Ser465/467) [5]: induces
